{"source": "patent US5338548A", "about": "“Method for increasing the storage stability of physostigmine” (priority 1993, dated 1994)", "key": {"[1]": {"assay": "Stability of Physostigmine Free Base in Polymer Matrix (patch storage, HPLC recovery)", "type": "physicochemical", "details": "for Weight of Physostigmine free base Recovered: polyurethane patch, n = 3", "method": "Increased stability of physostigmine free base in polymer matrices over solutions is shown in the following experiments. Patches containing physostigmine free base in a polymer matrix were prepared by dissolving 18 g of a polyether based polyurethane produced by Dow under the name Pellethane™ grade 2363-80AE, 2.0 g physostigmine free base and 2.0 g isopropyl myristate in 80 g THF. The solution was allowed to stand until clear. A second identical lot of polymer/drug solution was prepared containing 0.02 g of acetyl cystine. Clear solutions were cast onto the reverse side of a polyester-based release liner available from 3M Company of Minneapolis under the trade name Scotch™ 1002. After evaporation of the THF solvent, the liquid cast film of 2000 μm produced a dry matrix film 200-230 μm thick. Patches with an area of 7.9 cm^2 were cut from these laminated structures, packaged in polyethylene foil pouches and stored at room temperature and at 45° C.\nThree patches from each lot were tested for physostigmine free base content immediately after manufacture and after 7 and 25 days of storage at room temperature and at 45° C. Once the backing was removed from the patch, the drug-containing film was weighed and then dissolved in 25 g of THF, followed by dilution with 25 g on methanol. Precipitated Pellethane™ was filtered from the solution before injection into the HPLC. Average amounts of physostigmine free base recovered from the patches, with and without acetyl cysteine, are given in Table I. Theoretical drug loadings were 17.2 and 16.2 mg for the stabilized and unstabilized patches, respectively. Scatter in the weight data can be attributed to variation in film weights and analytical errors amounting to as much as ±10%."}, "[2]": {"tested_on": "skin of rabbits", "assay": "In Vivo Test of Physostigmine Free Base Patches (rabbit skin flux, 23 hours)", "method": "Pellethane™ 2363-80AE (24.4 g) was added to a solution of 101.3 g of THF containing 2.903 g of physostigmine free base and 2.951 g of isopropyl myristate and stirred until a clear solution was formed. After evaporation of the THF solvent, the liquid cast film of 2000 μm produced a dry matrix film 180-230 μm thick. A solution of Avery adhesive 460, containing 10 wt % isopropyl myristate was cast on the drug/polymer matrix film to produce an adhesive layer approximately 801 μm thick. The film was finally overlaid with a release liner film 1022 available from 3M Company and patches with an area of 7.92 cm^2 were cut from the laminated structure. These patches were weighed, heat sealed into polyethylene-foil pouches and stored until use.\nThe patches were then placed on the skin of rabbits from which the hair had been carefully clipped, after 23 hours, the patches were removed and the in vivo skin fluxes determined and summarized in Table II."}, "[3]": {"assay": "Stability of Physostigmine Free Base in Aqueous Solution (and in ethanol, isopropyl myristate), HPLC", "type": "physicochemical", "method": "Relative stability of physostigmine free base in neutral or alkaline solution was determined as follows. Methanolic solution of physostigmine free base was acidified with a few drops of hydrochloric acid to lower the pH to about 3-6. […] Analysis was performed using HPLC Nova Pak 4-C18 column and a mobile phase consisting of:\n0.63 g 85% Phosphorous Acid\n0.96 g Sodium pentasulphonate\nIn the same manner, stability of physostigmine free base in neutral or slightly acidified water was determined and is shown in FIG. 2. […] In ethanol solution, 5% of the physostigmine free base was lost after 7 days and 10% after 27 days. At this rate of degradation, a patch would have lost 72% of its active ingredient in one year and 92% in two years."}, "[4]": {"tested_on": "long-term memory", "details": "Davis et al., Science 201, 272 (1978); cited from earlier work"}, "[5]": {"tested_on": "tardive dyskinesia", "details": "American Journal of Psychiatry, 134(7), 769-774; cited from earlier work"}, "[6]": {"details": "tablets, oral dosage; cited from earlier work"}, "[7]": {"tested_on": "skeletal muscle contraction", "details": "background, myasthenia gravis; cited from earlier work"}, "[8]": {"details": "systemic use; cited from earlier work"}, "[9]": {"details": "individual patch (patch 1-12), 23 hours on rabbit skin"}}, "note": "Where “and” joins values, the source holds several entries; their conditions need not be identical. Equal values may be shown once. Entries after “also recorded” stand apart in the source; their conditions may differ.", "data": [{"smiles": "CNC(=O)Oc1ccc2c(c1)[C@]1(C)CCN(C)[C@@H]1N2C", "note": "[Physostigmine free base]", "values": [{"measurement": "discoloration of patches", "setting": "[1]; 25 days at 45° C.", "value": "slightly discolored"}, {"measurement": "Weight of Physostigmine free base Recovered", "setting": "[1]; No Preservative, 45° C., 0 days", "value": 15.0, "unit": "mg"}, {"measurement": "Weight of Physostigmine free base Recovered", "setting": "[1]; No Preservative, 45° C., 7 days", "value": 16.8, "unit": "mg"}, {"measurement": "Weight of Physostigmine free base Recovered", "setting": "[1]; No Preservative, 45° C., 25 days", "value": 18.5, "unit": "mg"}, {"measurement": "Weight of Physostigmine free base Recovered", "setting": "[1]; No Preservative, Room Temperature, 0 days", "value": 15.0, "unit": "mg"}, {"measurement": "Weight of Physostigmine free base Recovered", "setting": "[1]; No Preservative, Room Temperature, 7 days", "value": 16.5, "unit": "mg"}, {"measurement": "Weight of Physostigmine free base Recovered", "setting": "[1]; No Preservative, Room Temperature, 25 days", "value": 16.8, "unit": "mg"}, {"measurement": "Weight of Physostigmine free base Recovered", "setting": "[1]; With Preservative, 45° C., 0 days", "value": 15.1, "unit": "mg"}, {"measurement": "Weight of Physostigmine free base Recovered", "setting": "[1]; With Preservative, 45° C., 7 days", "value": 16.8, "unit": "mg"}, {"measurement": "Weight of Physostigmine free base Recovered", "setting": "[1]; With Preservative, 45° C., 25 days", "value": 16.8, "unit": "mg"}, {"measurement": "Weight of Physostigmine free base Recovered", "setting": "[1]; With Preservative, Room Temperature, 0 days", "value": 15.1, "unit": "mg"}, {"measurement": "Weight of Physostigmine free base Recovered", "setting": "[1]; With Preservative, Room Temperature, 7 days", "value": 17.3, "unit": "mg"}, {"measurement": "Weight of Physostigmine free base Recovered", "setting": "[1]; With Preservative, Room Temperature, 25 days", "value": 16.8, "unit": "mg"}, {"measurement": "additional peaks in HPLC analysis", "setting": "[1]; patches stored 25 days at 45° C.", "value": "no additional peaks were observed"}, {"measurement": "physostigmine free base loss during storage", "setting": "[1]; polyurethane patches, room temperature or 45° C., up to 25 days", "value": "no measurable physostigmine free base loss"}, {"measurement": "Drug Delivered ΔMass", "setting": "[2]; Average of patches 1-12", "value": 14.0, "unit": "mg"}, {"measurement": "Drug Delivered ΔMass (%)", "setting": "[2]; Average of patches 1-12", "value": 69, "unit": "%"}, {"measurement": "Drug Remaining in Patch", "setting": "[2]; Average of patches 1-12", "value": 6.3, "unit": "mg"}, {"measurement": "ΔMass/time", "setting": "[2]; Average of patches 1-12", "value": 0.61, "unit": "mg/h"}, {"measurement": "Average Total Flux", "setting": "[2]; Average of patches 1-12, patch area 7.9 cm^2", "value": 77, "unit": "μg/cm^2 · hr"}, {"measurement": "Drug Delivered ΔMass", "setting": "[2]; [9]", "value": "15.0 mg and 14.0 mg and 15.7 mg and 12.0 mg and 16.0 mg and 12.8 mg and 14.3 mg and 13.7 mg and 15.2 mg and 12.7 mg and 11.8 mg"}, {"measurement": "Drug Delivered ΔMass (%)", "setting": "[2]; [9]", "value": "67% and 69% and 70% and 71% and 68%"}, {"measurement": "ΔMass/time", "setting": "[2]; [9]", "value": "0.65 mg/h and 0.61 mg/h and 0.68 mg/h and 0.52 mg/h and 0.70 mg/h and 0.56 mg/h and 0.62 mg/h and 0.60 mg/h and 0.66 mg/h and 0.55 mg/h and 0.51 mg/h"}, {"measurement": "Drug Remaining in Patch", "setting": "[2]; individual patch (patch 1-12), 23 hours on rabbit skin, measured by HPLC", "value": "7.4 mg and 6.8 mg and 7.1 mg and 5.2 mg and 6.7 mg and 6.2 mg and 6.5 mg and 5.7 mg and 4.9 mg"}, {"measurement": "Average Total Flux", "setting": "[2]; individual patch (patch 1-12), patch area 7.9 cm^2, 23 hours on rabbit skin", "value": "82 μg/cm^2 · hr and 77 μg/cm^2 · hr and 86 μg/cm^2 · hr and 66 μg/cm^2 · hr and 88 μg/cm^2 · hr and 71 μg/cm^2 · hr and 78 μg/cm^2 · hr and 75 μg/cm^2 · hr and 83 μg/cm^2 · hr and 70 μg/cm^2 · hr and 64 μg/cm^2 · hr"}, {"measurement": "drug delivered", "setting": "[2]; over the 23 hour period", "value": "approximately 70%"}, {"measurement": "Average Physostigmine free base flux", "setting": "[2]; text after Table II", "value": 160, "unit": "μg/cm^2 ·h"}, {"measurement": "degraded at 168 h", "setting": "[3]; ethanol solution, after 7 days, read-out: physostigmine free base lost in ethanol solution", "value": 5, "unit": "%"}, {"measurement": "degraded at 648 h", "setting": "[3]; ethanol solution, after 27 days, read-out: physostigmine free base lost in ethanol solution", "value": 10, "unit": "%"}, {"measurement": "appearance of degradation (pink solution, rubreserine)", "setting": "[3]; methanolic solution acidified with HCl to pH about 3-6, after one or two hours", "value": "became pink due to accumulation of the degradation product rubreserine; also recorded: appearance of degradation products of the pink solution"}, {"measurement": "loss of initial drug in neutral solution", "setting": "[3]; neutral water, within 30 days, same storage conditions, FIG. 2", "value": "degrades rapidly with more than half of the initial drug gone"}, {"measurement": "stability in slightly acidified water", "setting": "[3]; room temperature, pH 3, FIG. 2", "value": "more stable, and slightly pink"}, {"measurement": "rate of degradation in ethanol and isopropyl myristate", "setting": "[3]; solvents ethanol and isopropyl myristate, compared with unbuffered and acidified water", "value": "slower than with unbuffered water but faster than with acidified water"}]}, {"smiles": "CNC(=O)Oc1ccc2c(c1)[C@]1(C)CCN(C)[C@@H]1N2C", "note": "[Physostigmine]", "values": [{"measurement": "retrieval of information from long-term memory", "setting": "[4]", "value": "improved"}, {"measurement": "storage of information into long-term memory", "setting": "[4]", "value": "significantly enhanced storage of information into long-term memory"}, {"measurement": "therapeutic effects on tardive dyskinesia", "setting": "[5]", "value": "positive therapeutic effects on tardive dyskinesia"}, {"measurement": "drug blood levels for multiple oral doses", "setting": "[6]", "value": "typical variations in blood concentration ranging from a maxima above the required level (and possibly in the toxic range) to a minima which may be below the effective dose"}, {"measurement": "strength of muscular contraction", "setting": "[7]", "value": "increased strength of muscular contraction"}, {"measurement": "therapeutic window", "setting": "[8]", "value": "narrow therapeutic window"}]}]}
